Here are results for 3 compounds from publication PMC6910946, “Multiple roles of Bet v 1 ligands in allergen stabilization and modulation of endosomal protease activity” (Allergy, 2019).

Read-outs that look alike come from different tables or passages of the source.

Assay [1] concerns the target T1, Bet_v_1 (Betula pendula, UniProt P15494).
T1 construct: made in house
T1 sequence (P15494 1-160): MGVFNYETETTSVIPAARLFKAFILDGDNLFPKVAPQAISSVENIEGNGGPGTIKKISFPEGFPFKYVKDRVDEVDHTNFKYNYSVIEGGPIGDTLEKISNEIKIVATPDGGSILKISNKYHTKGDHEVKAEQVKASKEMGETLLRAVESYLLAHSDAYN
Briefly: Surface acoustic wave (SAW) interaction studies, determination of Kd. It counts as binding. An excerpt: Surface acoustic wave (SAW) technology and NMR spectroscopy were used to observe the interaction of Bet_v_1 with the selected compounds, including determination of the dissociation constant (K d). The influence of ligand binding on the secondary structure elements and the thermal stability of Bet_v_1 was monitored using circular dichroism (CD, JASCO J‐815 spectropolarimeter, Jasco) and Fourier transform infrared (FTIR) spectroscopy (Tensor II FTIR system, Bruker Optics Inc). A detailed description of these methods is available (Appendix [Link], [Link]).
To assess the interactions between Bet_v_1 and Q3OS, DOC, PPE1, LTA, or LPS, we determined the dissociation constants (K d) using SAW binding assays (Table 1, Figure S1), a more quantitative approach than previously described qualitative assays.11, 25 In addition, the LPS‐substructure Kdo2‐Lipid A (Kdo2) was used for binding studies, due to its more homogenous structure but similar immune stimulatory activity when compared to native LPS.
For the determination of the affinity constant Kd, we used surface acoustic wave (SAW) technology. The interaction of the six ligands with Bet v 1 was investigated using a sam® 5BLUE biosensor instrument (Nanotemper, Munich, Germany). Bet v 1 was immobilized in PBS on the surface of a SAW CM-Dextran 3D sensor chip. […] For calculating the affinity constant Kd, different concentrations of the ligands dissolved in a 5 mM sodium phosphate buffer, pH 7.4, were applied to the Bet v 1-coupled chip. Depending on the ligand, the concentration range of the injected ligand varied between 5 µM and 500 µM. For the removal of residual ligand between the sample injections, the chip was washed with regeneration buffer (10 mM citric acid buffer, pH 2.8). The recorded SAW phase changes were analyzed using the software TraceDrawer 1.7 (Ridgeview Instruments, Uppsala, Sweden). The affinity constant Kd was calculated by kinetic evaluation and affinity/EC50 estimation. For kinetic evaluation, an OneToOne curve fit was chosen to match the raw data. Experiments were performed with two coated chips in duplicate, and the coupling efficiency was evaluated using a mouse monoclonal anti-Bet v 1 antibody.

The subject of assay [2] is rat basophil (RBL‐2H3) cells transfected with the human high‐affinity IgE receptor (FcεRI). Put plainly: Mediator release assay (IgE cross-linking, basophil degranulation). The format is cell-based. Conditions: sera of six birch pollen allergic subjects. Here is the method:
The ability of ligand‐loaded Bet_v_1 to induce IgE‐antigen cross‐linking and basophil degranulation was assessed by mediator‐release assays using rat basophil (RBL‐2H3) cells, transfected with the human high‐affinity IgE receptor (FcεRI), as previously described.2, 24 In vitro uptake of labeled Bet_v_1 was performed using CD11c^+ murine bone marrow–derived dendritic cells (BMDCs). The maturation of human monocyte‐derived dendritic cells (moDCs) was analyzed as previously described.2 T‐cell proliferation assays using CD4^+ T‐cell hybridomas were performed as previously described.17 A detailed description of the in vitro assays is available (Appendix [Link], [Link]).
A mediator-release assay was performed to assess the capacity of ligand-loaded Bet v 1 to induce IgE-antigen-crosslinking and basophil degranulation. In this respect, rat basophil (RBL-2H3) cells, transfected with the human high-affinity IgE receptor (FcεRI) were passively sensitized with sera of six subjects allergic to birch pollen (1:10), and used as previously described.^4 For cell-stimulation, Bet v 1 was used at 10-fold dilutions from 1 µg/ml to 0.01 pg/ml. Toxicity of ligands on RBL-2H3 was determined by cell viability assay using MTT (3-(4,5-Dimethylthiazol-2-yl)-2,5-Diphenyltetrazolium Bromide) from Sigma-Aldrich, Inc. (St. Louis, MO, USA). Results were expressed as percentage of total enzyme release of cells lysed with Triton X-100, and the half maximal release (in ng) was determined. Statistics were calculated with a repeated ANOVA followed by a Dunnett post-hoc test of logarithmically transformed half maximal release values (not significant, ns P > 0.05, *P < 0.05, **P < 0.01, and ***P < 0.001).

For assay [3], the target named is T2, Bet v 1 / human legumain (Betula pendula, UniProt P15494).
T2 construct: made in house
T2 sequence (P15494 2-160 limits assumed): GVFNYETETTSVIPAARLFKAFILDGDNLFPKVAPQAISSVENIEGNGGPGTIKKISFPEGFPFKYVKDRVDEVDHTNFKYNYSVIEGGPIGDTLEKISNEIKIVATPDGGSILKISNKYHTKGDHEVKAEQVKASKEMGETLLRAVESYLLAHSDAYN
Briefly: Bet v 1 in vitro proteolytic degradation assay with legumain. The format is biochemical. Here is the method:
(§1) The endolysosomal degradation assay was performed with ligand‐bound (either DOC, PPE1, or Q3OS in 10× molar excess) and Bet_v_1 without ligands (apo‐Bet_v_1) as previously described.21 Recombinant human cathepsin S and human legumain were used in proteolytic degradation assays. Experimental details are described in the Appendix [Link], [Link].
(§2) Recombinant human cathepsin S and human legumain were heterologously expressed and purified as described previously.^9,10 Bet v 1 (20 µM) was incubated with ligand (100 µM) in digestion buffer (0.1 M sodium acetate, pH 5.0, 0.1 M sodium chloride, 5 mM EDTA, and 2 mM DTT) at room temperature prior to the addition of cathepsin S (1 µM) or legumain (2 µM). […] At each time point, the reaction was halted by the addition of E64 (for cathepsin S) or YVAD-CMK (for legumain) at a final concentration of 50 µM, and analyzed by SDS-PAGE. Control reactions without the addition of protease were performed. The generated peptides were analyzed using mass spectrometry.

Assay [4] deals with T3, Bet v 1 / human cathepsin S (Betula pendula, UniProt P15494).
T3 construct: made in house
T3 sequence (P15494 2-160 limits assumed): T2 sequence (P15494 2-160 limits assumed)
Put plainly: Bet v 1 in vitro proteolytic degradation assay with cathepsin S. The format is biochemical. The settings on record: for processing (degradation) of Bet v 1 by cathepsin S: Bet v 1 20 µM, ligand 100 µM, cathepsin S 1 µM, pH 5.0, 0-24 h, SDS-PAGE. Here is the method:
as §1, §2

In assay [5] the test system is LPS‐stimulated human DCs. Set-up: method as in PMID 19454659, PMID 17451798. The settings on record: cited from earlier work.
[6] abbreviates: Bet v 1 immobilized on chip, ligands in 5 mM sodium phosphate buffer pH 7.4, read-out: Binding affinity K d (SAW).
Where [7] appears, read: relative abundance of peptides by mass spectrometry.

Regarding `O=c1c(O[C@@H]2O[C@H](CO)[C@@H](O)[C@H](O)[C@H]2O[C@@H]2O[C@H](CO)[C@@H](O)[C@H](O)[C@H]2O)c(-c2ccc(O)c(O)c2)oc2cc(O)cc(O)c12` [Q3OS, quercetin 3‐O‐sophoroside], the Kd in assay [1] (setting [6]) is 1.5 µM; in assay [1] (Fig. S1 sensorgrams, read-out: Kd (SAW, Fig. S1)), 1.47 µM. The “IgE cross‐linking by Bet v 1‐complexes (RBL assay)” value (from here on “IgE cross‐linking”) in assay [2] is given as “None of the above described readouts was influenced”.
`C[C@H](CCC(=O)O)[C@H]1CC[C@H]2[C@@H]3CC[C@@H]4C[C@H](O)CC[C@]4(C)[C@H]3C[C@H](O)[C@]12C` [DOC, sodium deoxycholate, reference compound]: in assay [3] (Bet v 1 20 µM, ligand 100 µM, legumain 2 µM, pH 5.0, 0-24 h, SDS-PAGE), the “processing (degradation) of Bet v 1 by legumain” value is recorded as “strongly retarded”. Further, the “processing (degradation) of Bet v 1 by cathepsin S” value in assay [4] is “strongly retarded”. In addition, the Kd in assay [1] (Binding affinity K d (SAW)) stood at 58.8 µM; in assay [1] (Kd (SAW, Fig. S1)), 58.8 µM. Also, the “IgE cross‐linking” value in assay [2] is “None of the above described readouts was influenced”.
On to `CCC1C(=O)CC(O)C1/C=C/C(O)CCCCCCCC(=O)O` (centres unmarked) [PPE1, E1 phytoprostanes], for which the “Bet v 1 cleavage site frequency with legumain” value in assay [3] (setting [7]) is “cleavage frequency after Asn120 and Asp157 strongly increased”. Moreover, the “production of IL‐12p70” value in assay [5] is “inhibits the production of IL‐12p70”. Also, in assay [4], the “processing (degradation) of Bet v 1 by cathepsin S” value is “strongly retarded”. The “Bet v 1 cleavage site frequency with cathepsin S” value in assay [4] (setting [7]) is “preferential cleavage was observed after Phe20, Lys21, and in the C‐terminal region”. For the same compound, the Kd in assay [1] (setting [6]) was 0.5 µM. In addition, the “IgE cross‐linking” value in assay [2] is recorded as “None of the above described readouts was influenced”.
